{"source": "paper PMC6007947", "about": "“Sensitivity of pretargeted immunoPET using ^68Ga-peptide to detect colonic carcinoma liver metastases in a murine xenograft model: Comparison with ^18FDG PET-CT” (Oncotarget, 2018)", "origin": "cited, not measured here", "settings": "stated in discussion", "from_the_text": "Pretargeting is one way to improve tumor uptake and tumor to normal organ uptake ratios by reducing the molecular size of the radioactive agent and using a non-radiolabeled bispecific antibody, such as TF2. TF2 is a humanized bispecific monoclonal antibody produced by the Dock-and-Lock® technology, containing two anti-CEA Fab fragments and another Fab fragment binding the HSG hapten component of the IMP288 hapten peptide. Compared to previously used bispecific antibodies with a single binding site for the tumor antigen and another for the hapten, this bivalency is expected to increase t ..."}
{"substance": "DOTA-D-Tyr-D-Lys(HSG)-D-Glu-D-Lys(HSG)-NH2 [IMP288, DOTA-conjugated tetrapeptide containing two HSG hapten structures]", "values": [{"measurement": "Clearance from blood", "result": "within an hour"}]}
